Data as given in US20170172955A1, “Treatment of Mixed Dyslipidemia” (priority 2015, published 2017).
Like-named read-outs stand apart in the source and are kept apart here.

What was measured:
CYP2D6 = CYP2D6 (Homo sapiens, UniProt P10635); assay: biochemical
Protocol: (§1) Human livers, HLM141, HLM143, and HLM144 were selected from the University of Washington Human Liver Bank for this study. […] The actual concentrations used for each of the other probes are specified below. […] The seven isoforms and the metabolic pathway of each of the probes used to monitor specific isoform activity are listed below.
CYP2D6: The O-demethylation of dextromethorphan (5 μM). The reaction is monitored by high performance liquid chromatography (HPLC) using florescence detection.

fibrinogen = assay: Fibrinogen levels in humans, post hoc analysis of study A4141001; type: in vivo, human; design: Mean Final FIBR / Mean Change FIBR: unit not given here; details: for Change in Fibrinogen, Difference (Gem - Placebo): MITT; for Fibrinogen Change, Difference (Gem-placebo) / Mean % Change FIBR / Mean Change FIBR / Mean Final FIBR / Fibrinogen Change, LS Mean (SE): subjects with fibrinogen baseline >400 mg/dL
Protocol: Week 0) and the end (Visit T8, Week 8). Analyses of covariance (ANCOVA) methods used in the original study A4141001 were again utilized in these analyses. For fibrinogen, baseline was defined as the last pretreatment visit, and endpoint was the last visit up to and including the day after last dose of medication. The least-squares means and p-values for change from baseline in fibrinogen were calculated using an ANCOVA model with the effects of baseline lipid value and treatment. Also, medians and p-values for percent change from baseline. […] This, consequently, was the definition for the modified intent-to treat (MITT) population.

CYP2E1 = CYP2E1 (Homo sapiens, UniProt P05181); assay: biochemical
Protocol: as §1
CYP2E1: The formation of p-nitrocatechol from p-nitrophenol (40 μM). Amounts of product formed are monitored by HPLC.

primary rat hepatocytes = assay: Cholesterol and triglyceride synthesis ([14C]acetate) in primary rat hepatocyte cultures; type: cell-based; details: for % Change in Synthesis, Cholesterol ± SEM / % Change in Synthesis, Triglyceride ± SEM: relative to vehicle cells
Protocol: At end of labeling period, cells were washed with room temperature D-PBS, 2.0 mL per well and the reaction is stopped with 1.0 mL 0.75 N HCl. Cells were scraped and transferred to 15×45 mm glass vial (1 dram size). Wells were washed with 1.0 mL of methanol and added to scraped cells, followed by the addition of 2.0 mL of chloroform. Vials were capped and vortexed for 5 seconds and centrifuged in a Beckman GS 6KR centrifuge at 3,600 rpm for 15 minutes at room temperature to separate phases. The bottom chloroform phase was transferred to new 15×45 mm glass vial, dried down in a […] evaporator at 37° C. under nitrogen gas. Vials were cooled to room temperature and samples resuspended in 130 μL of n-heptane:chloroform, 4:1 by vortexing for 5 seconds. […] Plates were dried for 30 minutes in an 80° C. gravity convection oven, cooled to room temperature, and wrapped in SaranTM Wrap. Plates were exposed overnight to phosphorimager plates, scanned on Typhoon PhosporImager (Molecular Dynamics), and analyzed using Imagequant software (Molecular Dynamics).

CYP2C19 = CYP2C19 (Homo sapiens, UniProt P33261); assay: biochemical
Protocol: as §1
CYP2C19: The 4′-hydroxylation of (S)-mephenytoin (50 μM). The reaction is monitored by quantitative GC/MS using mephenytoin-(d3-methyl) as the internal standard.

plasma fibrinogen = assay: Fibrinogen levels in rats (electro immunoassay); type: in vivo, rat; details: male Sprague-Dawley rats
Protocol: Fifty-Six male Sprague-Dawley rats were obtained from Charles River Laboratories. All animals were allowed normal rat chow (Ralston-Purina) and water ad libitum in temperature-controlled rooms, under a 12-hour light, 12-hour dark cycle beginning with lights on at 6 AM. Rats were distributed to 7 groups of 8 rats per group. […] Control animals received vehicle alone. […] CI-719 is gemfibrozil. […] The plasma fibrinogen plasma levels were determined by electro immunoassay. […] Data are shown in FIG. 12 as mean±SEM of as percent of control fibrinogen levels. *p<0.001, two-sided unpaired t-test, compared to control.

CYP1A2 = CYP1A2 (Homo sapiens, UniProt P05177); assay: biochemical
Protocol: as §1
CYP1A2: The 6-hydroxylation of high concentrations (0.5 mM) of (R)-warfarin. The reaction is monitored by quantitative gas chromatographic/mass spectrometric (GC/MS) using 6-hydroxywarfarin-(d5-phenyl) as the internal standard.

Chain of CYP2E1 (P05181 whole entry): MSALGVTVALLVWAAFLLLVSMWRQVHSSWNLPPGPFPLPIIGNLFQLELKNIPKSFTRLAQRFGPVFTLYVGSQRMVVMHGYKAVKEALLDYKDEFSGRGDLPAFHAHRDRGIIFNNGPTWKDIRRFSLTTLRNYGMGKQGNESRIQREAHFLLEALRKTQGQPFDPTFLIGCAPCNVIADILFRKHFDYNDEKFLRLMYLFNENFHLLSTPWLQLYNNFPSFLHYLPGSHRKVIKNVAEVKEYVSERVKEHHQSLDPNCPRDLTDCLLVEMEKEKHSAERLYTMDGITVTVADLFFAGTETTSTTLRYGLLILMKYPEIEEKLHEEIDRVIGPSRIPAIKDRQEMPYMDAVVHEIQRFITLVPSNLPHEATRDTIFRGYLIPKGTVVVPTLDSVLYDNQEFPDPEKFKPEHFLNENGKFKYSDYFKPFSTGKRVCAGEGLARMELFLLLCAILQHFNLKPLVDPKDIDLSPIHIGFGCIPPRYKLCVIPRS
Chain of CYP2D6 (P10635 whole entry, canonical isoform): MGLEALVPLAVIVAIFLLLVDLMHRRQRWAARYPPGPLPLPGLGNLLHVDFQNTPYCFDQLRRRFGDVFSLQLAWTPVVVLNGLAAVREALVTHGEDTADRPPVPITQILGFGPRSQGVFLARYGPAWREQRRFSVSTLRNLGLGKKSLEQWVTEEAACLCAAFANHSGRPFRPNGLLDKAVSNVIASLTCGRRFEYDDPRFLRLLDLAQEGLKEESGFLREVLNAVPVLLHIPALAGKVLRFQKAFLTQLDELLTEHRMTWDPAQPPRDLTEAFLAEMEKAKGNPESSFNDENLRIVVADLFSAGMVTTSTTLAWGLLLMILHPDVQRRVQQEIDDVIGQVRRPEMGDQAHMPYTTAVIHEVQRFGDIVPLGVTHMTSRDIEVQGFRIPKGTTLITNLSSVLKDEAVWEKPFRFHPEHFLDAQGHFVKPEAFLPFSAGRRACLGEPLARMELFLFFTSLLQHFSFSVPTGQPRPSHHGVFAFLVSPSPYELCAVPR
Chain of CYP1A2 (P05177 whole entry): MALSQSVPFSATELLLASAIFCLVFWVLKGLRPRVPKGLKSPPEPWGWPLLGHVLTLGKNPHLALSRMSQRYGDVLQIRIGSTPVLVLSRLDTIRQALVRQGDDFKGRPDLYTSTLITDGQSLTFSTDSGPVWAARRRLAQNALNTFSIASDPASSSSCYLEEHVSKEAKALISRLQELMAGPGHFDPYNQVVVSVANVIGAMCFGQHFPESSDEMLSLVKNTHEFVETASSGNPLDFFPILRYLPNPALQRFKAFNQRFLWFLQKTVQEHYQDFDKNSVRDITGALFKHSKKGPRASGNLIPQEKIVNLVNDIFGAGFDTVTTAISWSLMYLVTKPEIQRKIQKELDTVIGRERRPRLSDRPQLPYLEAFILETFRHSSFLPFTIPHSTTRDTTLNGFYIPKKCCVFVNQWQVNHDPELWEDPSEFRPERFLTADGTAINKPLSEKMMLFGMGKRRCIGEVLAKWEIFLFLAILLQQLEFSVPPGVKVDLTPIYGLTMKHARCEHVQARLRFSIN
Chain of CYP2C19 (P33261 whole entry): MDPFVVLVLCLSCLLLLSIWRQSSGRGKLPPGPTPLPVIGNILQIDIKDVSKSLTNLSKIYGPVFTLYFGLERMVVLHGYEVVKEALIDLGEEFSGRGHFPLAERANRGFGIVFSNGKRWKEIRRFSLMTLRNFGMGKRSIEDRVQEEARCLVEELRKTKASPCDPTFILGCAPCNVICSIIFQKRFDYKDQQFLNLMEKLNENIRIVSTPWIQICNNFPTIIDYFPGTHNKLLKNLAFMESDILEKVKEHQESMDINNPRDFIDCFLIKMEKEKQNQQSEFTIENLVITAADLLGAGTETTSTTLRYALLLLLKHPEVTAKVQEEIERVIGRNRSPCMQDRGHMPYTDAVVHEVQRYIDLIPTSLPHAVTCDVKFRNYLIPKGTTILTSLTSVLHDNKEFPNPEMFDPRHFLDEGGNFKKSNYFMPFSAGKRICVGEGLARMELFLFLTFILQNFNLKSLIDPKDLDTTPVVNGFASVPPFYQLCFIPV

CC(C)(CCCCOCCCCC(C)(C)C(=O)O)C(=O)O [Gemcabene, 6,6′-oxybis(2,2-dimethylhexanoic acid)]
IC50 (CYP2D6): > 1500 µM | IC50 (CYP2D6; human, microsomes): > 1500 µM | Change in Fibrinogen, Difference (Gem - Placebo) (fibrinogen; gemcabene 300 mg): −13.0 | Change in Fibrinogen, Difference (Gem - Placebo) (fibrinogen; gemcabene 600 mg): −13.6 | Change in Fibrinogen, Difference (Gem - Placebo) (fibrinogen; gemcabene 900 mg): −24.3 | Fibrinogen Change, Difference (Gem-placebo) (fibrinogen; gemcabene 300 mg): 5.0 | Mean % Change FIBR (fibrinogen; gemcabene 300 mg): 6.7% | Mean Change FIBR (fibrinogen; gemcabene 300 mg): 26.6 | Mean Final FIBR (fibrinogen; gemcabene 300 mg): 454.4 | Fibrinogen Change, LS Mean (SE) (fibrinogen; gemcabene 300 mg monotherapy): 26.0 (29.3) | Fibrinogen Change, Difference (Gem-placebo) (fibrinogen; gemcabene 600 mg): −62.5 | Mean % Change FIBR (fibrinogen; gemcabene 600 mg): −9.3% | Mean Change FIBR (fibrinogen; gemcabene 600 mg): −41.4 | Mean Final FIBR (fibrinogen; gemcabene 600 mg): 411.0 | Fibrinogen Change, LS Mean (SE) (fibrinogen; gemcabene 600 mg monotherapy): −41.5 (28.9) | Fibrinogen Change, Difference (Gem-placebo) (fibrinogen; gemcabene 900 mg): −34.0 | Mean % Change FIBR (fibrinogen; gemcabene 900 mg): −3.2% | Mean Change FIBR (fibrinogen; gemcabene 900 mg): −12.9 | Mean Final FIBR (fibrinogen; gemcabene 900 mg): 435.9 | Fibrinogen Change, LS Mean (SE) (fibrinogen; gemcabene 900 mg monotherapy): −13.0 (22.9) | Mean % Change FIBR (fibrinogen; gemcabene at any of the doses): −2.2% | Mean Change FIBR (fibrinogen; gemcabene at any of the doses): −9.8 | Mean Final FIBR (fibrinogen; gemcabene at any of the doses): 434.1 | IC50 (CYP2E1): > 1500 µM | activity slightly enhanced (CYP2E1; human, 1500 μM): about 20% | IC50 (CYP2E1; human, microsomes): > 1500 µM | decrease of cholesterol synthesis (± SEM) (primary rat hepatocytes; 10 μM): 61.5±1.8% | reduction of triglyceride synthesis (primary rat hepatocytes; 10 μM): 8.9±4.5% | % Change in Synthesis, Cholesterol ± SEM (primary rat hepatocytes; 10 μM): −61.5 ± 1.8% | % Change in Synthesis, Triglyceride ± SEM (primary rat hepatocytes; 10 μM): −8.9 ± 45%^ns | decrease of cholesterol synthesis (± SEM) (primary rat hepatocytes; 30 μM): 90.0±0.8% | reduction of triglyceride synthesis (primary rat hepatocytes; 30 μM): 72.1±2.9% | % Change in Synthesis, Cholesterol ± SEM (primary rat hepatocytes; 30 μM): −90.0 ± 0.8% | % Change in Synthesis, Triglyceride ± SEM (primary rat hepatocytes; 30 μM): −72.1 ± 2.9% | IC50 (CYP2C19): > 1500 µM | IC50 (CYP2C19; human, microsomes): > 1500 µM | reduction in plasma fibrinogen levels compared with control (plasma fibrinogen; 30 mg/kg/day oral, 14 days): 52% | reduction in plasma fibrinogen levels compared with control (plasma fibrinogen; 100 mg/kg/day oral, 14 days (PD 72953)): 57% | IC50 (CYP1A2): > 1500 µM | IC50 (CYP1A2; human, microsomes): > 1500 µM
